Source: ChEMBL document CHEMBL1614632, “Trend analysis of a database of intravenous pharmacokinetic parameters in humans for 670 drug compounds” (Drug Metab Dispos, 2008)

How the values were obtained:
clinical [1] = settings: human, in vivo, iv, Vdss
clinical [2] = settings: human, in vivo, iv, CL
clinical [3] = settings: human, in vivo, iv, t1/2
clinical [4] = settings: human, in vivo, iv

Structure (SMILES) | Vd (clinical [1]) [L/kg] | clearance (clinical [2]) [mL/min/kg] | half-life (clinical [3]) [h] | MRT (clinical [4]) [h]
COc1ccc(C(=O)Nc2ccccc2CCC2CCCCN2C)cc1 (stereo unspecified) [ENCAINIDE] | 2.2 | 13 | 2.6 | 2.8
N/N=c1/cc2c(n[nH]1)CCN(C(=O)c1ccccc1)C2 [ENDRALAZINE] | 2.2 | 13 | 5.6 | 2.7
Cc1cc(-n2cccc2)c(S(C)(=O)=O)cc1C(=O)NC(=N)N [ENIPORIDE] | 1.1 | 8.2 | 2.2 | 2.3
CC(C)(C)NC(=O)[C@H]1CC[C@H]2[C@@H]3CC=C4C=C(C(=O)O)CC[C@]4(C)[C@H]3CC[C@]12C [EPRISTERIDE] | 0.54 | 0.33 | 27 | 27
CCCCc1ncc(/C=C(\Cc2cccs2)C(=O)O)n1Cc1ccc(C(=O)O)cc1 [EPROSARTAN] | 0.17 | 1.9 | 2.1 | 1.5
CCCCCC/C=C\CCCCCCCCCC(=O)N[C@H]1[C@H](OC[C@H]2O[C@H](OP(=O)(O)O)[C@H](NC(=O)CC(=O)CCCCCCCCCCC)[C@@H](OCCCCCCCCCC)[C@@H]2O)O[C@H](COC)[C@@H](OP(=O)(O)O)[C@@H]1OCC[C@@H](CCCCCCC)OC [ERITORAN] | 0.048 | 0.013 | 51 | 62
C[C@]12CC[C@@H]3c4ccc(OC(=O)N(CCCl)CCCl)cc4CC[C@H]3[C@@H]1CC[C@@H]2OP(=O)(O)O [ESTRAMUSTINE PHOSPHATE] | 0.12 | 0.94 | 2.4 | 2.1
C=C(CC)C(=O)c1ccc(OCC(=O)O)c(Cl)c1Cl [ETHACRYNIC ACID] | 0.26 | 8.73 | 0.5 | 0.5
CCNCC(O)c1cccc(O)c1 (stereo unspecified) [ETILEFRINE] | 2.1 | 14 | 2.2 | 2.5
CC[C@@]1(O)C(=O)OCc2c1cc1n(c2=O)Cc2c-1nc1cc(F)c(C)c3c1c2[C@@H](N)CC3 [EXATECAN] | 0.44 | 0.96 | 6.7 | 7.6
O=C1NCC2(CCN(CCc3ccccc3)CC2)O1 [FENSPIRIDE] | 3 | 2.6 | 14 | 19
OC(Cn1cncn1)(Cn1cncn1)c1ccc(F)cc1F [FLUCONAZOLE] | 0.75 | 0.31 | 30 | 40
Nc1nc(=O)[nH]cc1F [FLUCYTOSINE] | 0.68 | 2 | 4.2 | 5.7
CCOC(=O)Nc1ccc(NCc2ccc(F)cc2)nc1N [FLUPIRTINE] | 1.1 | 1.6 | 8.5 | 11
C[C@@H]1O[C@@H]1P(=O)(O)O [FOSFOMYCIN] | 0.32 | 2 | 1.9 | 2.7
O=C(O)[C@@H]1C[C@@H](C2CCCCC2)CN1C(=O)CP(=O)(O)CCCCc1ccccc1 [FOSINOPRILAT] | 0.13 | 0.32 | 9.4 | 6.8
C[C@@](O)(/C=C/[C@H]1CC=CC(=O)O1)[C@@H](C[C@@H](O)\C=C/C=C\C=C\CO)OP(=O)(O)O [FOSTRIECIN] | 0.086 | 1.2 | 1.5 | 1.2
CN[C@@H]1CCc2[nH]c3ccc(C(N)=O)cc3c2C1 [FROVATRIPTAN] | 3.6 | 2.5 | 24 | 22
COc1ccc2c3c1O[C@H]1C[C@@H](O)C=C[C@@]31CCN(C)C2 [GALANTAMINE] | 2.3 | 5.6 | 5.3 | 6.8
Nc1nc(O)c2ncn(COC(CO)CO)c2n1 [GANCICLOVIR] | 1 | 4.6 | 3.7 | 3.7
COc1c(N2CCNC(C)C2)c(F)cc2c(=O)c(C(=O)O)cn(C3CC3)c12 (stereo unspecified) [GATIFLOXACIN] | 1.7 | 2.8 | 10 | 11
C[C@H]([C@](O)(Cn1cncn1)c1ccc(F)cc1F)S(C)(=O)=O [GENACONAZOLE] | 0.62 | 0.19 | 49 | 54
C[C@@H]1C(=O)O[C@H]2C[C@@]34[C@H]5C[C@@H](C(C)(C)C)[C@]36[C@@H](OC(=O)[C@@H]6O)O[C@@]4(C(=O)O5)[C@]21O [GINKGOLIDE A] | 0.62 | 2.3 | 3.8 | 4.6
C[C@@H]1C(=O)O[C@H]2[C@H](O)[C@@]34[C@H]5C[C@@H](C(C)(C)C)[C@]36[C@@H](OC(=O)[C@@H]6O)O[C@@]4(C(=O)O5)[C@@]12O [GINKOLIDE B] | 0.91 | 2.3 | 5.2 | 6.6
CN1C2CCCC1CC(NC(=O)c1nn(C)c3ccccc13)C2 (stereo unspecified) [GRANISETRON] | 3.7 | 9.1 | 5.2 | 6.7

Structure (SMILES) | Vd (clinical [1]) [L/kg] | clearance (clinical [2]) [mL/min/kg] | half-life (clinical [3]) [h] | MRT (clinical [4]) [h]
N=C(N)NC(=O)Cc1c(Cl)cccc1Cl [GUANFACINE] | 5.6 | 4.5 | 15 | 22
C[C@]12CCC(=O)C=C1CC[C@@H]1[C@@H]2[C@@H](O)C[C@@]2(C)[C@H]1CC[C@]2(O)C(=O)CO [HYDROCORTISONE] | 0.38 | 5.7 | 1.6 | 1.9
NS(=O)(=O)c1cc2c(cc1C(F)(F)F)NCNS2(=O)=O [HYDROFLUMETHIAZIDE] | 2.2 | 9.7 | 5.2 | 3.8
NC(=O)NO [HYDROXYUREA] | 0.52 | 1.5 | 3.4 | 4.8
Cc1cc(O)c2c(=O)c3c(O)cc(O)c4c5c(O)cc(O)c6c(=O)c7c(O)cc(C)c8c1c2c(c34)c(c78)c65 [HYPERICIN] | 0.25 | 0.13 | 42 | 32
CCCCCCCN(CC)CCCC(O)c1ccc(NS(C)(=O)=O)cc1 (stereo unspecified) [IBUTILIDE] | 12 | 26 | 7 | 7.7
c1ccc2c(c1)OCC(C1=NCCN1)O2 (stereo unspecified) [IDAZOXAN] | 3.3 | 10 | 4.2 | 5.5
O=P1(NCCCl)OCCCN1CCCl (stereo unspecified) [IFOSFAMIDE] | 0.62 | 1.1 | 6.6 | 9.4
C[N+](C)([O-])CCCN1c2ccccc2CCc2ccccc21 [IMIPRAMINOXIDE] | 1.9 | 12 | 1.8 | 2.6
Cc1cnc(NCCCN(C)C)c2c1[nH]c1ccc3cc(O)ccc3c12 [INTOPLICINE] | 11 | 18 | 19 | 11
CNC(=O)c1c(I)c(NC(C)=O)c(I)c(C(=O)O)c1I [IOTHALAMIC ACID] | 0.17 | 2.4 | 1.3 | 1.2
CC1=C(CO)C2=C(C)C3(CC3)[C@@](C)(O)C(=O)C2=C1 [IROFULVEN] | 3.1 | 140 | 0.3 | 0.4
Cc1cc(NC(=O)C2=C(O)c3ccccc3S(=O)(=O)N2C)no1 [ISOXICAM] | 0.19 | 0.07 | 33 | 44
C/C(=C\c1csc(C)n1)[C@@H]1C[C@@H]2O[C@]2(C)CCC[C@H](C)[C@H](O)[C@@H](C)C(=O)C(C)(C)[C@@H](O)CC(=O)N1 [IXABEPILONE] | 11 | 10 | 17 | 18
NC[C@H]1O[C@H](O[C@H]2[C@H](O)[C@@H](O[C@H]3O[C@H](CO)[C@@H](O)[C@H](N)[C@H]3O)[C@H](N)C[C@@H]2N)[C@H](O)[C@@H](O)[C@@H]1O [KANAMYCIN] | 0.26 | 1.4 | 2.1 | 3.1
CCC(=O)C1(c2cccc(O)c2)CCN(C)CC1 [KETOBEMIDONE] | 0.48 | 9.2 | 2.3 | 0.87
Cc1c(OCC(F)(F)F)ccnc1C[S+]([O-])c1nc2ccccc2[nH]1 (stereo unspecified) [LANSOPRAZOLE] | 0.28 | 4.4 | 1 | 1.1
Nc1nc2c(c(=O)[nH]1)N(C=O)C(CNc1ccc(C(=O)N[C@@H](CCC(=O)O)C(=O)O)cc1)CN2 (stereo partly specified) [LEUCOVORIN] | 0.25 | 5.8 | 1.3 | 0.8
C[C@H]1COc2c(N3CCN(C)CC3)c(F)cc3c(=O)c(C(=O)O)cn1c23.C[C@H]1COc2c(N3CCN(C)CC3)c(F)cc3c(=O)c(C(=O)O)cn1c23.O [LEVOFLOXACIN] | 1.2 | 1.9 | 8.8 | 11
COc1ccc2c(c1)N(C[C@H](C)CN(C)C)c1ccccc1S2 [LEVOMEPROMAZINE] | 12 | 9.9 | 30 | 21
CC(=O)NC[C@H]1CN(c2ccc(N3CCOCC3)c(F)c2)C(=O)O1 [LINEZOLID] | 0.58 | 1.8 | 4.5 | 5.4
CN1C(=O)C(O)N=C(c2ccccc2Cl)c2cc(Cl)ccc21 (stereo unspecified) [LORMETAZEPAM] | 1.6 | 4 | 4.9 | 6.7
CCCCc1nc(Cl)c(CO)n1Cc1ccc(-c2ccccc2-c2nn[nH]n2)cc1 [LOSARTAN] | 0.37 | 8.2 | 1.8 | 0.75
CC[C@H](C)C(=O)O[C@H]1C[C@@H](C)C=C2C=C[C@H](C)[C@H](CC[C@@H]3C[C@@H](O)CC(=O)O3)[C@H]21 [LOVASTATIN] | 0.87 | 7.2 | 1.4 | 1.3
